Some results are limits rather than exact numbers.

The target in the assay is recombinant human Myt1 (full length PKMYT1) (Homo sapiens (Human), UniProt Q99640). Put plainly: Recombinant human Myt1 kinase assay (ADP-Glo). The format is biochemical. The following applies: 10 μM ATP. In outline: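 Full-length insect-cell-expressed human Myt1 (18 nM final) was preincubated with compound (0.5% DMSO) for 15 min at 22 °C. The reaction ran with 10 μM ATP for 60 min at 30 °C in HEPES buffer with Mg2+/Mn2+ and DTT. ADP formed was read by ADP-Glo luminescence, giving IC50 and % max inhibition.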
Chain of recombinant human Myt1 (full length PKMYT1) (Q99640 whole entry): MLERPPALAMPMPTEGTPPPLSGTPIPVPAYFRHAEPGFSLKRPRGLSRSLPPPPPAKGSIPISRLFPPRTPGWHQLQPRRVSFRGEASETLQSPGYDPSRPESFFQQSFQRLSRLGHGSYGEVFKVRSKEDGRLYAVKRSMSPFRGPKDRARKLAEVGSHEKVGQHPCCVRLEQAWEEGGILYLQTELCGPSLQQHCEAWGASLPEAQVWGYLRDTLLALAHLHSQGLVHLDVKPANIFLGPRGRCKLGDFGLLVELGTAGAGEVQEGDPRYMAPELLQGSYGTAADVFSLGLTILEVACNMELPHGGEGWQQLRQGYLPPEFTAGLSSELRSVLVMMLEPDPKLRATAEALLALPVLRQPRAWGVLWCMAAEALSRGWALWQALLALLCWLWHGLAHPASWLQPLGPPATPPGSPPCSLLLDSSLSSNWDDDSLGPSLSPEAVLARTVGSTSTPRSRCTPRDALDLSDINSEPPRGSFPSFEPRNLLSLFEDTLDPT
Background: ADP-Glo first removes unused ATP, then detects ADP through luciferase.
As usually defined, the IC50 is the point on the concentration scale where inhibition reaches its midpoint. `Cc1ccc2[nH]ncc2c1-c1cc(-c2ncccn2)nc(C(N)=O)c1N` [Compound 219]: the IC50 was 56 nM. Under `Cc1ccc2[nH]ncc2c1-c1cc(-c2csc(C3(O)COC3)n2)nc(C(N)=O)c1N` [Compound 223] stands 61 nM. With `Cc1ccc2[nH]ncc2c1-c1cc(-c2csc(C(C)(C)O)n2)nc(C(N)=O)c1N` [Compound 225] the figure was 161 nM; with `Cc1ccc2[nH]ncc2c1-c1cc(-c2cc[nH]c(=O)c2)nc(C(N)=O)c1N` [Compound 237], 48 nM.

Consider `Cc1ccc2n[nH]cc2c1-c1cc(-c2cccc(=O)[nH]2)nc(C(N)=O)c1N` [Compound 243], for which the IC50 was 73 nM. Under `Cc1c(-c2ccccn2)nc(C(N)=O)c(N)c1-c1cccc2[nH]ncc12` [Compound 246, 5-amino-4-(1H-indazol-4-yl)-3-methyl-[2,2′-bipyridine]-6-carboxamide] stands 720 nM; under `Cc1ccc2[nH]ncc2c1-c1cc(-c2cccc(OCc3ccn(C)n3)n2)nc(C(N)=O)c1N` [Compound 248], 71 nM; under `Cc1ccc2[nH]ncc2c1-c1cc(-c2cccc(OC(C)c3ccccn3)n2)nc(C(N)=O)c1N` (centres unmarked) [Compound 252], 26 nM. Under `Cc1ccc2[nH]ncc2c1-c1cc(-c2cccc(O[C@@H](C)c3ncccn3)n2)nc(C(N)=O)c1N` [Compound 253] stands 55 nM; under `COc1cnc(COc2cccc(-c3cc(-c4c(C)ccc5[nH]ncc45)c(N)c(C(N)=O)n3)n2)nc1` [Compound 255], 72 nM. Under `Cc1ccc2[nH]ncc2c1-c1cc(-c2cccc(OCc3c(F)c(F)c(F)c(F)c3F)n2)nc(C(N)=O)c1N` [Compound 258] stands above 2000 nM. Regarding `Cc1ccc2[nH]ncc2c1-c1cc(-c2cccc(OCc3nccc(N4CCOCC4)n3)n2)nc(C(N)=O)c1N` [Compound 259], the IC50 came out at 584 nM.

`Cc1ccc2[nH]ncc2c1-c1cc(-c2ccnc(OCCc3ccncc3)n2)nc(C(N)=O)c1N` [Compound 263]: the IC50 is 19 nM. Under `Cc1ccc2[nH]ncc2c1-c1cc(-c2ccnc(OCCc3nccn3C)n2)nc(C(N)=O)c1N` [Compound 264] stands 9 nM; under `Cc1ccnc(-c2cc(-c3c(C)ccc4[nH]ncc34)c(N)c(C(N)=O)n2)c1` [Compound 269], 18 nM; under `Cc1ccc2[nH]ncc2c1-c1cc(-c2ccnc(OCCc3cccnc3)n2)nc(C(N)=O)c1N` [Compound 272], 12 nM. With `Cc1ccc2[nH]ncc2c1-c1cc(-c2cccc(N[C@@H](CO)c3ccccc3)n2)nc(C(N)=O)c1N` [Compound 275] the figure was 141 nM; with `Cc1ccc2n[nH]cc2c1-c1cc(-c2cccc(OC[C@@H](N)c3ccccc3)n2)nc(C(N)=O)c1N` [Compound 277], 162 nM. For `Cc1ccc2[nH]ncc2c1-c1cc(-c2cccc(OCc3cncs3)n2)nc(C(N)=O)c1N` [Compound 279], the IC50 is 8 nM. With `Cc1ccc2[nH]ncc2c1-c1nc(-c2cccc(CC#N)c2)nc(C(N)=O)c1N` [Compound 281] the figure was 8 nM; with `Cc1ccc2[nH]ncc2c1-c1nc(-c2cccc(-n3cccn3)c2)nc(C(N)=O)c1N` [Compound 282], 13 nM; with `Cc1ccc2[nH]ncc2c1-c1nc(-c2cccc(CN3CCOCC3)c2)nc(C(N)=O)c1N` [Compound 283], 30 nM. Under `Cc1ccc2[nH]ncc2c1-c1nc(-c2cccc(C(=O)N(C)C)c2)nc(C(N)=O)c1N` [Compound 284] stands 38 nM; under `CNC(=O)c1cccc(-c2nc(C(N)=O)c(N)c(-c3c(C)ccc4[nH]ncc34)n2)c1` [Compound 285], 20 nM. Under `COCCOc1cccc(-c2nc(C(N)=O)c(N)c(-c3c(C)ccc4[nH]ncc34)n2)c1` [Compound 286] stands 41 nM; under `Cc1ccc2[nH]ncc2c1-c1nc(-c2cccc(Oc3ccc(F)cc3)c2)nc(C(N)=O)c1N` [Compound 287], 62 nM. As for `Cc1ccc2[nH]ncc2c1-c1nc(-c2cccc(C(=O)N3CCOCC3)c2)nc(C(N)=O)c1N` [Compound 289], the IC50 is 18 nM. On to `Cc1ccc2[nH]ncc2c1-c1nc(-c2cccc(CN(C)C)c2)nc(C(N)=O)c1N` [Compound 291], for which the IC50 was found to be 25 nM. Under `COCc1cccc(-c2nc(C(N)=O)c(N)c(-c3c(C)ccc4[nH]ncc34)n2)c1` [Compound 292] stands 18 nM; under `CCOC(=O)COc1cccc(-c2nc(C(N)=O)c(N)c(-c3c(C)ccc4[nH]ncc34)n2)c1` [Compound 293], 16 nM; under `Cc1ccc2[nH]ncc2c1-c1nc(-c2cccc(OCC(=O)O)c2)nc(C(N)=O)c1N` [Compound 294], 17 nM. With `Cc1ccc2[nH]ncc2c1-c1nc(-c2cccc(CNc3ncccn3)c2)nc(C(N)=O)c1N` [Compound 295] the figure was 27 nM. For the compound `Cc1ccc2[nH]ncc2c1-c1nc(-c2cccc(CNc3ncc(C(F)(F)F)cn3)c2)nc(C(N)=O)c1N` [Compound 296], the IC50 came to 213 nM.

Consider `CC(=O)Nc1cccc(-c2nc(C(N)=O)c(N)c(-c3c(C)ccc4[nH]ncc34)n2)c1` [Compound 298], for which the IC50 amounted to 15 nM. With `Cc1ccc2[nH]ncc2c1-c1cc(-c2ccnc(OCc3noc(C4CCCC4)n3)n2)nc(C(N)=O)c1N` [Compound 300], the concentration for half-maximal inhibition (IC50) came out at 100 nM. With `Cc1ccc2[nH]ncc2c1-c1nc(-c2cccc(C=O)c2)nc(C(N)=O)c1N` [Compound 304] the figure was 27 nM; with `Cc1ccc2[nH]ncc2c1-c1nc(-c2cccc(CO)c2)nc(C(N)=O)c1N` [Compound 305], 81 nM; with `Cc1ccc2[nH]ncc2c1-c1cc(-c2cccc(OCCN3CCN(C)CC3)n2)nc(C(N)=O)c1N` [Compound 307], 25 nM.

Consider `Cc1ccc2[nH]ncc2c1-c1cc(-c2ccnc(OCCc3cnccn3)n2)nc(C(N)=O)c1N` [Compound 310], for which the IC50 is 14 nM.

Turning to `Cc1ccc2[nH]ncc2c1-c1cc(-c2ccnc(OCCc3ccncn3)n2)nc(C(N)=O)c1N` [Compound 311], the IC50 was above 2000 nM. With `Cc1nc(COc2nccc(-c3cc(-c4c(C)ccc5[nH]ncc45)c(N)c(C(N)=O)n3)n2)co1` [Compound 316] the figure was 20 nM; with `Cc1ccc2[nH]ncc2c1-c1cc(-c2ccnc(OCC3CCC(=O)N3)n2)nc(C(N)=O)c1N` (centres unmarked) [Compound 317], 13 nM; with `Cc1nnc(COc2cccc(-c3cc(-c4c(C)ccc5[nH]ncc45)c(N)c(C(N)=O)n3)n2)o1` [Compound 318], 21 nM.

With `Cc1ccc2[nH]ncc2c1-c1nc(-c2ccccc2N)nc(C(N)=O)c1N` [Compound 319], the IC50 was 48 nM. With `NC(=O)c1nc(-c2cccnc2)cc(-c2c(C(F)F)ccc3[nH]ncc23)c1N` [Compound 321, 5-amino-4-(5-(difluoromethyl)-1H-indazol-4-yl)-[2,3′-bipyridine]-6-carboxamide] the figure was above 2000 nM.

As for `NC(=O)c1nc(-c2cccnc2)cc(-c2c(C(F)(F)F)ccc3[nH]ncc23)c1N` [Compound 325], the IC50 was above 2000 nM. With `Cc1ccc2[nH]ncc2c1-c1cc(-c2ccnc(OCc3cncn3C3CCCCC3)n2)nc(C(N)=O)c1N` [Compound 328] the figure was 18 nM. In the case of `Cc1ccc2[nH]ncc2c1-c1cc(-c2ccnc(OCCn3cccn3)n2)nc(C(N)=O)c1N` [Compound 329], the IC50 amounted to 14 nM. With `CCC(Nc1cccc(-c2cc(-c3c(C)ccc4[nH]ncc34)c(N)c(C(N)=O)n2)n1)c1ccccc1` (centres unmarked) [Compound 331, 5-amino-4-(5-methyl-1H-indazol-4-yl)-6′-((1-phenylpropyl)amino)-[2,2′-bipyridine]-6-carboxamide] the figure was 54 nM; with `Cc1ccc2[nH]ncc2c1-c1cc(Nc2ccccc2)nc(C(N)=O)c1N` [Compound 335, 3-amino-4-(5-methyl-1H-indazol-4-yl)-6-(phenylamino)picolinamide], 195 nM; with `Cc1ccc2[nH]ncc2c1-c1cc(-c2ccnc(OCc3nc4ccccc4n3C)n2)nc(C(N)=O)c1N` [Compound 336], 65 nM. With `Cc1ccc2[nH]ncc2c1-c1cc(-c2ccnc(OC[C@H]3CCC(=O)N3)n2)nc(C(N)=O)c1N` [Compound 337], the IC50 amounted to 19 nM. Under `COc1ccc(COc2cccc(-c3cc(-c4c(C)ccc5[nH]ncc45)c(N)c(C(N)=O)n3)n2)cc1` [Compound 339] stands 1160 nM. Consider `COc1cccc(-c2cccc(-c3cc(-c4c(C)ccc5[nH]ncc45)c(N)c(C(N)=O)n3)n2)c1` [Compound 340, 5-amino-6′-(3-methoxyphenyl)-4-(5-methyl-1H-indazol-4-yl)-[2,2′-bipyridine]-6-carboxamide], for which the IC50 was above 2000 nM. Under `Cc1ccc2[nH]ncc2c1-c1cc(-c2ccnc(NCC3(O)CC3)n2)nc(C(N)=O)c1N` [Compound 341] stands 16 nM; under `Cc1ccc2[nH]ncc2c1-c1cc(-c2ccnc(NCCCO)n2)nc(C(N)=O)c1N` [Compound 343], 20 nM; under `Cc1ccc2[nH]ncc2c1-c1cc(-c2ccnc(N3CCCC(CO)C3)n2)nc(C(N)=O)c1N` (centres unmarked) [Compound 346], 13 nM. With `Cc1ccc2[nH]ncc2c1-c1cc(-c2ccnc(N3CC[C@@H](O)C3)n2)nc(C(N)=O)c1N` [Compound 347] the figure was 18 nM; with `Cc1ccc2[nH]ncc2c1-c1cc(-c2ccnc(N3CC[C@H](O)C3)n2)nc(C(N)=O)c1N` [Compound 348], 15 nM. Under `Cc1ccc2[nH]ncc2c1-c1cc(-c2ccnc(N3CCC(O)(c4ccccc4)CC3)n2)nc(C(N)=O)c1N` [Compound 349] stands 138 nM. With `CCC(CC)COc1cccc(-c2cc(-c3c(C)ccc4[nH]ncc34)c(N)c(C(N)=O)n2)n1` [Compound 350], the IC50 is 35 nM. With `CO[C@@H](COc1cccc(-c2cc(-c3c(C)ccc4[nH]ncc34)c(N)c(C(N)=O)n2)c1)c1ccccc1` [Compound 351] the figure was 149 nM.

(Values after patent US20250304537A1 (Repare Therapeutics Inc., priority 2022, published 2025).)
